# Test results as given in patent publication US20110053897A1 (IRM LLC, priority 2009, published 2011).
# Target: T1, Syk kinase (Homo sapiens, UniProt P43405)
# T1 construct: purchased
# Test: Syk kinase inhibition, Caliper LabChip off-chip mobility-shift kinase assay
# Type: biochemical
# Conditions: Caliper LabChip assay; read-out: Syk Enzyme IC50
# Procedure, shortened: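 Purified Syk pre-incubated 15 min with compound in 100 mM HEPES pH 7.5, 1 mM DTT, 10 mM MgCl2 or MnCl2, 0.002% Brij-35, then 1.5 μM fluorescein peptide and ATP at apparent KM added; 1–1.5 h at room temperature, 4% DMSO, EDTA stop. Microfluidic mobility-shift product/substrate conversion gave % inhibition; IC50 from 12-point series (10–0.00003 μM) by 4-parameter fit.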
row,IC50 [nM],SMILES
1,204,"CC1(O)CN(c2cc(Nc3cc4ccn(CCO)c(=O)c4c(NC(C)(C)C)n3)ncn2)C1 [compound 630, 8-(tert-butylamino)-6-(6-(3-hydroxy-3-methylazetidin-1-yl)pyrimidin-4-ylamino)-2-(2-hydroxyethyl)-2,7-naphthyridin-1(2H)-one]"
2,219,CC(C)(C)Nc1nc(Nc2cnccn2)cc2ccn(Cc3ccccn3)c(=O)c12 [compound 1021]
3,29,CC(C)(C)Nc1nc(Nc2cc(OCCO)ncn2)cc2ccn(C[C@H](O)CO)c(=O)c12 [compound 642]
4,26,CC(C)(C)Nc1nc(-c2cnc(N)nc2)cc2ccn(CCCO)c(=O)c12 [compound 915]
5,122,CCn1ccc2cc(Nc3cnccn3)nc(N[C@H](CO)C(C)C)c2c1=O [compound 1043]
6,612,CC(C)(C)Nc1nc(Nc2cc(C3=CCCCC3)ncn2)cc2ccn(CCO)c(=O)c12 [compound 623]
7,96,COCCn1ccc2cc(Nc3cnccn3)nc(NC(C)(C)C)c2c1=O [compound 1006]
8,18,CC(O)c1ccnc(Nc2cc3ccn(CC(N)=O)c(=O)c3c(NC3(C)CCC3)n2)c1 (centres unmarked) [compound 721]
9,61,CC(C)n1ccc2cc(Nc3cnccn3)nc(N[C@H]3CC[C@H](O)CC3)c2c1=O [compound 965]
10,12,O=c1c2c(NC3CCCC3)nc(Nc3cnccn3)cc2ccn1CC1(CO)COC1 [compound 763]
11,18,NC(=O)Cn1ccc2cc(Nc3cnccn3)nc(NC3CCCC3)c2c1=O [compound 752]
12,61,CCn1ccc2cc(Nc3nccc(O)n3)nc(N[C@@H]3CC[C@@H](O)C3)c2c1=O [compound 960]
13,590,CC(C)(C)Nc1nc(Nc2cc(C3=CCCCO3)ncn2)cc2ccn(CCO)c(=O)c12 [compound 624]
14,85,COCCCc1cc(Nc2cc3ccn(CCO)c(=O)c3c(NC(C)(C)C)n2)ncn1 [compound 622]
15,117,N#CCn1ccc2cc(-c3cnc(N)nc3)nc(NC3CCCC3)c2c1=O [compound 756]
16,17,CCn1ccc2cc(Nc3cnccn3)nc(N[C@H]3CC[C@H](O)C3)c2c1=O [compound 946]
17,29,[2H][C@]1(O)CC[C@H](Nc2nc(Nc3cnccn3)cc3ccn(CC)c(=O)c23)CC1 [compound 991]
18,108,Cc1ccnc(Nc2cc3ccn(CCO)c(=O)c3c(NC3CC3)n2)c1 [compound 817]
19,45,CCn1ccc2cc(-c3cnc(N)nc3)nc(N[C@@H]3CCC(F)C3)c2c1=O (some centres unmarked) [compound 749]

row,IC50 [nM],SMILES
1,99,CC(C)(C)Nc1nc(Nc2cc(S(C)(=O)=O)ccn2)cc2ccn(CCO)c(=O)c12 [compound 699]
2,1180,CCn1ccc2cc(Nc3cnccn3)nc(N)c2c1=O [compound 802]
3,51,CC(=O)c1ccnc(Nc2cc3ccn(CCO)c(=O)c3c(NC(C)(C)C)n2)c1 [compound 684]
4,3,CC(C)n1ccc2cc(Nc3cnccn3)nc(N[C@H]3CC[C@@H](CO)C3)c2c1=O [compound 988]
5,13,CC(C(N)=O)n1ccc2cc(Nc3cnccn3)nc(NC(C)(C)C)c2c1=O (centres unmarked) [compound 660]
6,333,Cc1ccnc(Nc2cc3ccn(C)c(=O)c3c(Nc3ccc(OCCN4CCOCC4)cc3)n2)c1 [compound 653]
7,92,CCn1ccc2cc(Nc3cc(C)ccn3)nc(N[C@H](C)CO)c2c1=O [compound 962]
8,643,CC(C)(C)Nc1nc(Nc2cc(C(=O)O)ccn2)cc2ccn(CCO)c(=O)c12 [compound 680]
9,296,Cc1ccnc(Nc2cc3ccn(CCN4CCOCC4)c(=O)c3c(NC(C)(C)C)n2)c1 [compound 997]
10,34,Nc1ncc(-c2cc3ccn(C[C@H](O)CO)c(=O)c3c(NC3CCC3)n2)cn1 [compound 774]
11,75,CC(C)(C)Nc1nc(-c2cnc(N)c(CO)c2)cc2ccn(CCO)c(=O)c12 [compound 720]
12,67,Cc1ccnc(Nc2cc3ccn(CCN4CCOCC4)c(=O)c3c(N[C@H]3CC[C@@H](O)CC3)n2)c1 [compound 993]
13,75,CCn1ccc2cc(Nc3cc(C)ccn3)nc(NC3CCS(=O)(=O)C3)c2c1=O (centres unmarked) [compound 970]
14,19,O=c1c2c(N[C@H]3CC[C@@H](O)CC3)nc(Nc3cnccn3)cc2ccn1C1COC1 [compound 1009]
15,164,[2H]C([2H])([2H])n1ccc2cc(Nc3cnccn3)nc(NC[C@@H]3CCCO3)c2c1=O [compound 1048]
16,8,CC(C)(C)Nc1nc(-c2cnc(N)nc2)cc2ccn(C[C@H](O)CO)c(=O)c12 [compound 935]
17,142,CC(C)(C)Nc1nc(Nc2cc(C(O)C(F)(F)F)ccn2)cc2ccn(CC(N)=O)c(=O)c12 (centres unmarked) [compound 613]
18,7,CC(C)n1ccc2cc(-c3cnc(N)nc3)nc(N[C@H]3CC[C@@H](O)C3)c2c1=O [compound 1031]
19,2410,COCCCN(C)S(=O)(=O)c1ccc(Nc2nc(Nc3cc(C)ccn3)cc3ccn(C)c(=O)c23)cc1 [compound 651]

# Same assay, conditions: read-out: Syk Enzyme IC50
row,IC50 [nM],SMILES
1,202,CC(C)N1CCC(c2cc3cc[nH]c(=O)c3c(Nc3ccc(N4CCOCC4)cc3)n2)CC1 [compound 3]
2,87,COCCCNc1nc(Nc2cc(C)ccn2)cc2cc[nH]c(=O)c12 [compound 281]
3,52,Cc1ccnc(Nc2cc3ccn(CCO)c(=O)c3c(NC(C)(C)CO)n2)c1 [compound 495]
4,18,Cc1ccnc(Nc2cc3cc[nH]c(=O)c3c(NC(C)CO)n2)c1 (centres unmarked) [compound 265]
5,226,CCN1CCN(CCc2ccc(Nc3nc(Nc4cc(C(=O)O)ccn4)cc4cc[nH]c(=O)c34)cc2)CC1 [compound 586]
6,11,CCn1ccc2cc(Nc3cc(C)ccn3)nc(N[C@H]3CCC[C@H]3O)c2c1=O [compound 420]
7,79,COc1cncc(-c2cc3cc[nH]c(=O)c3c(Nc3ccc(C4CCN(CCC#N)CC4)c(C)c3)n2)n1 [compound 128]
8,94.4,CCn1ccc2cc(Nc3cnccn3)nc(N[C@@H]3CCC[C@@H]3O)c2c1=O [compound 419]
9,18,CCn1ccc2cc(Nc3cc(C)ccn3)nc(N[C@H]3CC[C@@H](O)CC3)c2c1=O [compound 362]
10,489,Nc1ncc(-c2cc3ccn(CC4CC4(F)F)c(=O)c3c(Nc3ccc(N4CCOCC4)cc3)n2)cn1 (centres unmarked) [compound 4]
11,55,COc1cncc(-c2cc3cc[nH]c(=O)c3c(Nc3ccc(C4CCN(C(=O)C5CCOC5)CC4)c(C)c3)n2)n1 (centres unmarked) [compound 89]
12,58,CCN1CCN(CCc2ccc(Nc3nc(-c4cnn(C)c4)cc4cc[nH]c(=O)c34)cc2)CC1 [compound 441]
13,99,COCC1(C(=O)N2CCC(c3ccc(Nc4nc(-c5cncc(OC)n5)cc5cc[nH]c(=O)c45)cc3C)CC2)CC1 [compound 16]
14,78,COc1cncc(-c2cc3cc[nH]c(=O)c3c(Nc3ccc(CCN4CCNC5(CCCC5)C4)cc3)n2)n1 [compound 22]
15,5560,CCN1CCC[C@@H]1CNc1nc(Nc2cc(C)ccn2)cc2cc[nH]c(=O)c12 [compound 589]
16,101,COCCNc1nc(-c2cnc(N)nc2)cc2cc[nH]c(=O)c12 [compound 447]
17,56,CCN1CCN(c2n[nH]c3cc(Nc4nc(-c5ccc(C)nc5)cc5cc[nH]c(=O)c45)ccc23)CC1 [compound 200]
18,190,O=c1[nH]ccc2cc(-c3cncnc3)nc(Nc3ccc([C@H]4CC[C@H](N5CCOCC5)CC4)cc3)c12 [compound 111]

row,IC50 [nM],SMILES
1,41,COc1cncc(-c2cc3cc[nH]c(=O)c3c(Nc3ccc(C4CCN(CC(=O)N(C)OC)CC4)c(C)c3)n2)n1 [compound 176]
2,243,CCOCCc1cc2cc[nH]c(=O)c2c(Nc2ccc(N3CCO[C@H](C)C3)c(C)c2)n1 [compound 222]
3,31,COc1cncc(-c2cc3cc[nH]c(=O)c3c(Nc3ccc(C4CCC(N(C)C)CC4)cc3)n2)n1 (centres unmarked) [compound 109]
4,45,O=c1[nH]ccc2cc(CCCO)nc(Nc3ccc(N4CCOCC4)cc3)c12 [compound 247]
5,253,COCC(C)(C)C(=O)N1CCC(c2ccc(Nc3nc(-c4cncc(OC)n4)cc4cc[nH]c(=O)c34)cc2C)CC1 [compound 8]
6,164,CCCc1ccnc(Nc2cc3cc[nH]c(=O)c3c(NC(C)C)n2)c1 [compound 502]
7,178,CC(C)CNc1nc(-c2cnc(N)nc2)cc2cc[nH]c(=O)c12 [compound 186]
8,48,Cc1ccnc(Nc2cc3cc[nH]c(=O)c3c(NCCCO)n2)c1 [compound 504]
9,91,COc1cncc(-c2cc3cc[nH]c(=O)c3c(Nc3ccc(C4CCN(CC(=O)N(C)C)CC4)c(C)c3)n2)n1 [compound 167]
10,6,COc1cncc(-c2cc3cc[nH]c(=O)c3c(Nc3ccc(C4CCN(C(C)C(=O)N(C)C)CC4)c(C)c3)n2)n1 (centres unmarked) [compound 170]
11,168,Cn1cc(-c2cc3cc[nH]c(=O)c3c(Nc3ccc([C@H]4CC[C@H](N5CCOCC5)CC4)cc3)n2)cn1 [compound 99]
12,52,CC(C)(C)Nc1nc(Nc2cnccn2)cc2ccn(CCO)c(=O)c12 [compound 459]
13,807,CC(=O)c1cc2cc[nH]c(=O)c2c(Nc2ccc(N3CCO[C@H](C)C3)c(C)c2)n1 [compound 220]
14,139,Cn1ccc2cc(Nc3cnccn3)nc(NCC3CCCO3)c2c1=O (centres unmarked) [compound 475]
15,172,CCn1ccc2cc(Nc3cnccn3)nc(NC[C@@H]3CC[C@](C)(O)C3)c2c1=O [compound 415]
16,27,Cc1ccc(-c2cc3cc[nH]c(=O)c3c(Nc3ccc(C4CN(C)C4)cc3)n2)cn1 [compound 140]
17,287,CCn1ccc2cc(Nc3cc(C)ccn3)nc(NC[C@@H]3CC[C@](C)(O)C3)c2c1=O [compound 414]
18,28,Cc1cc(Nc2nc(-c3cnc(N)c(C)c3)cc3cc[nH]c(=O)c23)ccc1C1CCN(CCC#N)CC1 [compound 69]
